The data set is described as follows: Safety and tolerability, adverse events (Example 5). Type of data set: in vivo, human. On the procedure:
Safety and tolerability of Compound (a) was evaluated throughout the study, as described in Example 1.

Experimental findings from patent US20250281457A1, “TREATMENT OR PREVENTION OF DENGUE VIRAL INFECTION” (Janssen Pharmaceuticals, Inc., priority 2022, published 2025) are described below.

Take `COc1cc(NC(C(=O)c2c[nH]c3ccc(OC(F)(F)F)cc23)c2ccc(Cl)cc2OC)cc(S(C)(=O)=O)c1` (centres unmarked) [Compound (a)]: the Related adverse events entry (Panel I (LD 450 mg twice daily for two days, MD 900 mg Q7D)) is listed as “no related AEs”. Besides, the Related adverse events result (Panel II (LD 450 mg twice daily for two days, MD 450 mg Q3D or Q4D)) is “one Grade 1 AE of skin burning sensation considered related”. For the same compound, the Related adverse events result (Panel III (LD 150 mg twice daily for two days, MD 300 mg Q7D)) is “no related AEs”. Further, the Related adverse events result (Panel IV (LD 150 mg twice daily for two days, MD 150 mg Q3D or Q4D)) is “two Grade 1 AE of pruritic rash considered related”. For the same compound, under “Panels I-IV”, the “Grade 2 Treatment Emergent Events, overall” value was determined as 4; the “Grade 3 Treatment Emergent Events, overall” value is reported as “No”; the “Safety and tolerability, overall conclusion” value was “safe and well tolerated”; the “serious adverse events (SAEs) or/and serious unexpected adverse reactions (SUSARs) observed” value is “No”.
